Experiments:
[1] = Chemical stability of folates incubated in Defined αMEM at 65° C., read out by L. casei assay; assay type: physicochemical; details: for Chemical stability (support of growth in the microbiological assay): after 24 hours incubation at 65° C., pH 7.2 (FIG. 8); for Chemical stability relative to 5-methyltetrahydrofolate: 65° C., pH 7.2, Defined αMEM (FIG. 8)
Experimental: Folic acid and various reduced folates were incubated in Defined αMEM (described above) in sterile Eppendorf tubes at 65° C. and sampled at 0, 0.5, 1, 2, 4, 8, and 24 hours. The sampled aliquots were immediately mixed with L. casei extraction buffer containing sodium ascorbate to protect folates from oxidative degradation and frozen at −80° C. The L. casei assay was performed as previously described (Suh et al., “Purification and Properties of a Folate-Catabolizing Enzyme,” J Biol. Chem. 275(45):35646-35655 (2000), which is hereby incorporated by reference in its entirety).

HeLa cells [2] = assay: Cell proliferation of HeLa cells in Defined αMEM supplemented with folate forms (bright field image analysis); assay type: cell-based; details: range of concentrations, approximately three doublings, compared with Leucovorin and folic acid (FIGS. 6A, 6C)
Experimental: (§1) HeLa cells and immortalized mouse fibroblasts (CHIP) cells were plated in 96-well plates, 1000 cells per well. Total cell number was monitored over time using bright field image analysis on a Celigo cytometer (Nexcelom, Inc.) according to manufacturers' protocols. Data was represented as average±standard deviation for 10 biological replicates per condition. Cells were cultured in Defined αMEM culture media (lacking folate, serine, glycine, methionine, nucleosides/nucleotides, and pyridoxine) which was supplemented with 200 μM methionine, 0.5 g/L pyridoxine, and varying concentrations of folic acid, (6S)-Leucovorin or novel folate derivative. Before plating for proliferation assays, HeLa cells and CHIP cells were cultured for three doublings in Defined αMEM lacking folate to deplete intracellular folates.

[3] = tested on: immortalized mouse fibroblasts (CHIP) cells; assay: Cell proliferation of immortalized mouse fibroblasts (CHIP) in Defined αMEM supplemented with folate forms (bright field image analysis); assay type: cell-based; details: range of concentrations, approximately three doublings, compared with Leucovorin and folic acid (FIG. 6B)
Experimental: as §1

[4] = Stability in AIN-93G mouse food pellets; assay type: physicochemical; details: for at least 10 weeks; pellets stored at room temperature or −20° C. (FIGS. 9A-B)
Experimental: Folic acid and (6S)-5-formyl, 10-formyl-tetrahydrofolate were shipped to Dyets, Bethlehem, Pa. as folate sources for the formulation of AIN-93G, a defined growth diet formulated for rodents by the American Institute of Nutrition. The stability of folic acid and (6S)-5-formyl, 10-formyl-tetrahydrofolate in food pellets was determined over a 10 week period.

[5] = Mice fed AIN-93G diet containing the folate source (growth, adverse symptoms); assay type: in vivo, mouse; details: for Mouse growth: AIN-93G diet with the compound as folate source, over at least an 8-week period
HeLa cells [6] = assay: Total intracellular folate measurement in HeLa cells (L. casei microbiological assay); assay type: cell-based
Experimental: HeLa cells were cultured in Defined αMEM (as described above) lacking folate for two doublings to deplete cellular folates, then plated into 6-well plates (1000 cells/well) and cultured for two cell doublings with Defined αMEM culture media (described above) supplemented with 200 μM methionine, 0.5 g/L pyridoxine, and either 2 nM or 20 nM (6S)-Leucovorin or novel folate derivative. Total intracellular folates were quantified using a microbiological (Lactobacillus casei, or L. casei) assay as previously described (Suh et al., “Purification and Properties of a Folate-Catabolizing Enzyme,” J. Biol. Chem. 275(45):35646-35655 (2000), which is hereby incorporated by reference in its entirety). Data is represented as mean±SEM of three biological replicates per condition.

[7] = Acid stability (conversion to 5,10-methenyltetrahydrofolate); assay type: physicochemical; details: conversion to 5,10-methenyltetrahydrofolate in acid; no method described

Row | Compound | Chemical stability (support of growth in the microbiological assay) [1] | Chemical stability relative to 5-methyltetrahydrofolate [1] | Chemical stability relative to 5-methyltetrahydrofolate ([1]; 10-formyltetrahydrofolate) | Stability as a component of AIN-93G rodent food [4] | Mouse growth [5] | also measured
1 | CN1c2c(nc(N)[nH]c2=O)NC[C@@H]1CNc1ccc(C(=O)N[C@@H](CCC(=O)O)C(=O)O)cc1 [5-methyl-tetrahydrofolate, (6S) 5-methyltetrahydrofolate, reference compound] | completely destroyed | – | – | – | – | –
2 | Nc1nc2c(c(=O)[nH]1)N(C=O)[C@H](CN(C=O)c1ccc(C(=O)N[C@@H](CCC(=O)O)C(=O)O)cc1)CN2 [(6S)-5-formyl, 10-formyltetrahydrofolate] | – | chemically more stable than 5-methyltetrahydrofolate | increased chemical stability relative to (6S) 5-methyltetrahydrofolate | completely stable | promote mouse growth | Proliferation / support of cell growth (HeLa cells [2]; 10-formylTHF): support cell growth in a similar dose-response as (6S)-Leucovorin and are superior to folic acid; Proliferation / support of cell growth ([3]; 10-formylTHF): support cell growth in a similar dose-response as (6S)-Leucovorin and are superior to folic acid; Adverse symptoms ([5]; mice fed AIN-93G diet containing the compound for 8 weeks): without any adverse symptoms
3 | CN1c2c(nc(N)[nH]c2=O)NC[C@H]1CN(C=O)c1ccc(C(=O)N[C@@H](CCC(=O)O)C(=O)O)cc1 [(6S)-5-methyl, 10-formyltetrahydrofolate] | – | chemically more stable than 5-methyltetrahydrofolate | increased chemical stability relative to (6S) 5-methyltetrahydrofolate | – | – | Proliferation / support of cell growth (HeLa cells [2]; 10-formyl-THF): support cell growth in a similar dose-response as (6S)-Leucovorin and are superior to folic acid; Proliferation / support of cell growth ([3]; 10-formyl-THF): support cell growth in a similar dose-response as (6S)-Leucovorin and are superior to folic acid; Total cellular folate (HeLa cells [6]; HeLa cells cultured with 20 nM compound, compared with 2 nM (6S)-Leucovorin): equivalent to total cellular folate in HeLa cells cultured in 2 nM (6S)-Leucovorin; Total intracellular folate levels (HeLa cells [6]; HeLa cells, 2 nM or 20 nM folate form, (6S)-Leucovorin vs (6S)-5-methyl, 10-formyltetrahydrofolate (FIG. 7)): higher with (6S)-Leucovorin than with (6S)-5-methyl, 10-formyltetrahydrofolate
4 | Nc1nc2c(c(=O)[nH]1)N(C=O)[C@@H](CNc1ccc(C(=O)N[C@@H](CCC(=O)O)C(=O)O)cc1)CN2 [(6S)-Leucovorin, (6S)-5-formyltetrahydrofolate, reference compound] | continued to support growth | – | – | – | – | Stability in acid [7]: unstable in acid
5 | Nc1nc2ncc(CNc3ccc(C(=O)N[C@@H](CCC(=O)O)C(=O)O)cc3)nc2c(=O)[nH]1 [folic acid, reference compound] | continued to support growth | – | – | completely stable | promote mouse growth | –
